Laboratory results published in US11045562B2, “Radiolabelled mGluR2/3 PET ligands” (Janssen Pharmaceutica NV, priority 2015, dated 2021).

Experiments:
mGlu2-3 rat cortex = assay: [3H]-compound A displacement binding, rat cortical membranes
Procedure: (§1) For [^3H]-compound A (a NAM compound, selective for mGlu2/3 (˜20 fold selective for 2 over 3) vs other mGluRs) binding, membranes from human mGlu2 and mGlu3 HEK293 cells, and also rat cortical membranes, were used. After thawing, membranes were homogenized using an Ultra Turrax homogenizer and suspended in ice-cold binding buffer containing 50 mM Tris-HCl (pH 7.4), 10 mM MgCl2, 2 mM CaCl2. Displacement studies were done using 6 nM of radioligand, except for human mGlu3 membranes where 25 nM was used. Assay mixtures were incubated for 60 min at RT in a volume of 0.5 ml containing […] or 75 μg membrane protein of human mGlu2, human mGlu3 or rat cortex, respectively. Non-specific binding was estimated in the presence of […] compound B (a NAM with IC50˜10 nM against hmGlu2 and IC50˜200 nM against hmGlu3). Filtration was performed using Whatman GF/C filter sheets pre-soaked in 0.1% PEI and a Brandell harvester 96.
(§2) Filters from filters sheets were punched into vials. After the addition of scintillation liquid, radioactivity on the filters was counted in a Liquid Scintillation Analyzer from Perkin Elmer.
(§3) Radioligand competition binding data were calculated as percentage of total binding measured in the absence of test compound. […] Sigmoid inhibition curves were analyzed using non-linear regression analysis.

human mGlu3 = target: T1, human mGlu3 (Homo sapiens, UniProt Q14832); assay: [3H]-compound A displacement binding, human mGlu3 HEK293 membranes
T1 construct: expressed in transfected cells; host or cells: HEK293
Procedure: as §1, §2, §3

mGluR2/3 [1] = assay: microPET imaging in rhesus monkey, baseline and compound A pretreatment; type: in vivo, rhesus monkey (Macaca mulatta); conditions: for BPnd: baseline, SRTM, pons reference
From the text: Dynamic 120-min μPET scans with [^18F]-1 were acquired with a Focus 220 μPET scanner on a rhesus monkey (8 y-old female Macaca mulatta, 5.8 kg), that was sedated with ketamine (Ketalar®) and xylazine (Rompun®) via intramuscular (i.m.) injection. During scanning the monkey received repeatedly an additional dose of ketamine/xylazine via i.v. injection. O2 saturation in blood, breathing frequency and heartbeat frequency were monitored during the entire experiment. The head of the animal was placed central in the field of view of the μPET scanner. Scans were acquired in list mode and Fourier rebinned in 27 time frames (4×15 s, 4×60 s, 5×180 s, 8×300 s, 6×600 s). Data were reconstructed using a 3D maximum a posteriori (3D-MAP) iterative reconstruction. TACs of the whole brain were generated using VOIs with PMOD software. Radioactivity concentration in the brain is expressed as SUV as a function of time after tracer injection. In addition, non-displaceable binding potential (BPnd) was determined, using kinetic modeling based on the simplified reference tissue model (SRTM) with the pons as reference region (0-60 min). Scans were started immediately after i.v. injection of 185 MBq of [^18F]-1 via the vena saphena of the right leg. For the pre-treatment study, the cold authentic reference compound A was dissolved in a vehicle containing 20% (2-hydroxypropyl)-β-cyclodextrin and 2 equivalents HCl, filtered through a 0.22-μm membrane filter (Millex-GV, Millipore) prior to injection. Pre-treatment was done by i.v. injection of 2.5 mg/kg of cold authentic reference compound A, 30 min prior to injection of 185 MBq of [^18F]-1. μPET images were compared to a baseline scan, acquired in the non-treated monkey. Blood samples were collected during both baseline and pre-treatment scans at 10, 30 and 60 min p.i. via a catheter in the vena saphena of the left leg and plasma was analysed for radio metabolites according to the same procedure as for rats.

human mGlu2 = target: T2, human mGlu2 (Homo sapiens, UniProt Q14416); assay: [3H]-compound A displacement binding, human mGlu2 HEK293 membranes
T2 construct: expressed in transfected cells; host or cells: HEK293
Procedure: as §1, §2, §3

[2] = Ex-vivo biodistribution in Sprague-Dawley rats; conditions: for Uptake, Mean 2 min: 2 min after i.v. injection; for Uptake, Mean 2 min / Uptake, Mean 10 min / Uptake, Mean 30 min / Uptake, Mean 60 min: n=3; for Uptake, Mean 10 min: 10 min after i.v. injection; for Uptake, Mean 30 min: 30 min after i.v. injection; for Uptake, Mean 60 min: 60 min after i.v. injection
Procedure: (§4) Sprague-Dawley rats obtained from Harlan (the Netherlands), were housed in groups of four to six per cage until treatment. They were kept at a constant temperature of 21° C. and at a 12-h light/dark cycle, in which lights were switched on at 8:00 a.m. Animals had unrestricted access to food (Teklad Global 16% Protein Rodent Diet, Harlan, Madison, Wis., USA) and water. All animal experiments were performed in compliance with Belgium laws on animal experimentation and after approval by the local animal ethics committee.
The biodistribution of [^18F]-1 was determined at 2, 10, 30 and 60 min, after injection in Sprague Dawley rats (n=3 per time point. Rats were injected intravenously with 0.7-1.1 MBq via a tail vein and euthanized at the time points indicated above, under isoflurane anesthesia. All tissues were dissected, weighed and counted for radioactivity in a gamma counter.

mGluR2/3 [3] = assay: microPET scanning in SD rats, baseline and compound A pretreatment; type: in vivo
Procedure: Data were acquired in a 128×128×95 matrix with a pixel width of 0.475 mm and a slice thickness of 0.796 mm. During PET imaging, rats were kept under gas anesthesia (2.5% isoflurane in oxygen at a flow rate of 1 l/min), and their body temperature was maintained between 36.5 and 37° C. using a heating pad. PET data were analyzed using Pmod software version 3.2 (Pmod, Zurich Switzerland).
as §4
The peak uptake in frontal cortex during the baseline scan was observed around 15 min after tracer injection.

T2 sequence (Q14416 19-872): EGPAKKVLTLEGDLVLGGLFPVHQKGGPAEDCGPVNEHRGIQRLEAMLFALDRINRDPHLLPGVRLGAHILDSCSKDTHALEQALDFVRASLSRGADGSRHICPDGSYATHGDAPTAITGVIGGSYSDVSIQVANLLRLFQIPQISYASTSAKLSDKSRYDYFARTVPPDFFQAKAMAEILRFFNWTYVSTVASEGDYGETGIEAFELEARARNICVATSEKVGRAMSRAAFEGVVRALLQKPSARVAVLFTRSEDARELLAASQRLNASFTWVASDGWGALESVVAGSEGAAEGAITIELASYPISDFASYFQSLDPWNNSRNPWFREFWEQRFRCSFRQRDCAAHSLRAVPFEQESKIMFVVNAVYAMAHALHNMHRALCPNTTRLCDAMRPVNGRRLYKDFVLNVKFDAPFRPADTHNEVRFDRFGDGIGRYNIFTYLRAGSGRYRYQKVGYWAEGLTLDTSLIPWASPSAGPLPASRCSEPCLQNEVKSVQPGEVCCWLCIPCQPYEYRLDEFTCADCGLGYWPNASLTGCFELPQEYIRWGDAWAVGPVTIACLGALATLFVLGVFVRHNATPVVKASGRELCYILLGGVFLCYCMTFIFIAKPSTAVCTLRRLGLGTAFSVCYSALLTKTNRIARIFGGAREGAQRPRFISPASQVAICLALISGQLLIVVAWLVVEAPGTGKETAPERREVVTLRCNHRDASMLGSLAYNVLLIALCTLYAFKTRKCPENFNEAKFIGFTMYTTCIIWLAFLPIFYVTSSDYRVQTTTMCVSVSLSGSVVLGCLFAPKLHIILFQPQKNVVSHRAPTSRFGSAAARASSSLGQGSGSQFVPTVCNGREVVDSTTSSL
T1 sequence (Q14832 23-879): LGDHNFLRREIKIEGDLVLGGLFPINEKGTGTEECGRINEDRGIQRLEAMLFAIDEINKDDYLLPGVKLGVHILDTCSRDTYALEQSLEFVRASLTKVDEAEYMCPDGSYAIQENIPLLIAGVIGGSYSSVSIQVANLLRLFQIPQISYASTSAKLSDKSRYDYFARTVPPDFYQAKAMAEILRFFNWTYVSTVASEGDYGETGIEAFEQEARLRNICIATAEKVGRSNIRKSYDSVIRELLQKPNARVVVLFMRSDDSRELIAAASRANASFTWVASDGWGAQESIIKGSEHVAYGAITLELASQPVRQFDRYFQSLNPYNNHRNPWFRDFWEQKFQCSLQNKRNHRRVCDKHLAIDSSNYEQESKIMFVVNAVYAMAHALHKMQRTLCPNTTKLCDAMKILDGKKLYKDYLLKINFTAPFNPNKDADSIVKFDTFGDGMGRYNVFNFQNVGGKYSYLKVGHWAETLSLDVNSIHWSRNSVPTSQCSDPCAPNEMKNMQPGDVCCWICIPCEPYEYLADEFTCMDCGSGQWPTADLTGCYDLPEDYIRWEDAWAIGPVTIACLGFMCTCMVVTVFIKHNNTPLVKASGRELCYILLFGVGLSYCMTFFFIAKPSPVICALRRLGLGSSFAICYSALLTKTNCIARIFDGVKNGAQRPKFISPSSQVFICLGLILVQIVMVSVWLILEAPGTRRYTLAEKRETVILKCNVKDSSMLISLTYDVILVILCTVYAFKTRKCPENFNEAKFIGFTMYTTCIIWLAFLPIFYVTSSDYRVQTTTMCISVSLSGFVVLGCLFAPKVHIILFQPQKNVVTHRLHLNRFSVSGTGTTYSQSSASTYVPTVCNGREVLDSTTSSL

C[C@H]1CN(c2ccc(C(F)(F)F)c(CF)c2)C(=O)c2c(NC(=O)c3cccnc3N)cnn21 [[^19F]-1]
melting point: 150.62 °C

C[C@H]1CN(c2ccc(C(F)(F)F)c(C[18F])c2)C(=O)c2c(NC(=O)c3cccnc3N)cnn21 [compound 1]
Eff Curve (mGlu2-3 rat cortex): 103 | pIC50 (mGlu2-3 rat cortex; 6 nM [3H]-compound A): 8.7 | Eff Curve (human mGlu3): 96 | IC50 (human mGlu3; 25 nM [3H]-compound A): 5.01 nM | BPnd (mGluR2/3 [1]; frontal and prefrontal cortices): high | bone uptake (mGluR2/3 [1]; microPET scans, rhesus monkey): No bone uptake | BPnd (mGluR2/3 [1]; thalamus): low | brain uptake SUV (mGluR2/3 [1]; whole brain, baseline scan): ~3 SUV | time to peak uptake (mGluR2/3 [1]; whole brain, baseline scan): 3.5 min | Eff Curve (human mGlu2): 85 | IC50 (human mGlu2; 6 nM [3H]-compound A): 2.88 nM | time of highest uptake ([2]; all brain areas except for the pons): around 10 min | Uptake, Mean 2 min ([2]; blood): 0.72 SUV | Uptake, Mean 10 min ([2]; blood): 0.50 SUV | Uptake, Mean 30 min ([2]; blood): 0.39 SUV | Uptake, Mean 60 min ([2]; blood): 0.28 SUV | Uptake, Mean 2 min ([2]; bone): 0.61 SUV | Uptake, Mean 10 min ([2]; bone): 0.52 SUV | Uptake, Mean 30 min ([2]; bone): 0.73 SUV | Uptake, Mean 60 min ([2]; bone): 0.67 SUV | Uptake, Mean 2 min ([2]; cerebellum): 3.42 SUV | Uptake, Mean 10 min ([2]; cerebellum): 3.33 SUV | Uptake, Mean 30 min ([2]; cerebellum): 1.90 SUV | Uptake, Mean 60 min ([2]; cerebellum): 0.72 SUV | Uptake, Mean 2 min ([2]; cerebrum + cerebellum): 3.19 SUV | Uptake, Mean 10 min ([2]; cerebrum + cerebellum): 3.45 SUV | Uptake, Mean 30 min ([2]; cerebrum + cerebellum): 2.28 SUV | Uptake, Mean 60 min ([2]; cerebrum + cerebellum): 0.85 SUV | Uptake, Mean 2 min ([2]; cortex): 5.42 SUV | Uptake, Mean 10 min ([2]; cortex): 5.98 SUV | Uptake, Mean 30 min ([2]; cortex): 3.87 SUV | Uptake, Mean 60 min ([2]; cortex): 1.36 SUV | brain uptake ([2]; ex-vivo biodistribution, SD rats): high | bone uptake over time ([2]; ex-vivo biodistribution, hinting for some defluorination): went slightly up over time | uptake in liver, kidneys, pancreas and heart ([2]; followed by a fast washout): high initial uptake | Uptake, Mean 2 min ([2]; heart): 4.73 SUV | Uptake, Mean 10 min ([2]; heart): 2.16 SUV | Uptake, Mean 30 min ([2]; heart): 1.49 SUV | Uptake, Mean 60 min ([2]; heart): 1.14 SUV | Uptake, Mean 2 min ([2]; hippocampus): 2.49 SUV | Uptake, Mean 10 min ([2]; hippocampus): 2.83 SUV | Uptake, Mean 30 min ([2]; hippocampus): 1.94 SUV | Uptake, Mean 60 min ([2]; hippocampus): 0.80 SUV | Uptake, Mean 2 min ([2]; kidneys): 6.59 SUV | Uptake, Mean 10 min ([2]; kidneys): 2.76 SUV | Uptake, Mean 30 min ([2]; kidneys): 2.24 SUV | Uptake, Mean 60 min ([2]; kidneys): 1.87 SUV | Uptake, Mean 2 min ([2]; liver): 8.81 SUV | Uptake, Mean 10 min ([2]; liver): 5.70 SUV | Uptake, Mean 30 min ([2]; liver): 3.90 SUV | Uptake, Mean 60 min ([2]; liver): 2.42 SUV | Uptake, Mean 2 min ([2]; lungs): 4.70 SUV | Uptake, Mean 10 min ([2]; lungs): 2.27 SUV | Uptake, Mean 30 min ([2]; lungs): 2.01 SUV | Uptake, Mean 60 min ([2]; lungs): 1.77 SUV | Uptake, Mean 2 min ([2]; muscle): 0.57 SUV | Uptake, Mean 10 min ([2]; muscle): 1.07 SUV | Uptake, Mean 30 min ([2]; muscle): 0.87 SUV | Uptake, Mean 60 min ([2]; muscle): 0.65 SUV | Uptake, Mean 2 min ([2]; pancreas): 6.47 SUV | Uptake, Mean 10 min ([2]; pancreas): 3.07 SUV | Uptake, Mean 30 min ([2]; pancreas): 2.84 SUV | Uptake, Mean 60 min ([2]; pancreas): 2.75 SUV | time of peak uptake ([2]; pons): 2 min | Uptake, Mean 2 min ([2]; pons): 2.65 SUV | Uptake, Mean 10 min ([2]; pons): 2.13 SUV | Uptake, Mean 30 min ([2]; pons): 1.29 SUV | Uptake, Mean 60 min ([2]; pons): 0.56 SUV | Uptake, Mean 2 min ([2]; rest of cerebrum): 3.24 SUV | Uptake, Mean 10 min ([2]; rest of cerebrum): 3.74 SUV | Uptake, Mean 30 min ([2]; rest of cerebrum): 2.45 SUV | Uptake, Mean 60 min ([2]; rest of cerebrum): 0.91 SUV | Uptake, Mean 2 min ([2]; spleen): 3.71 SUV | Uptake, Mean 10 min ([2]; spleen): 1.64 SUV | Uptake, Mean 30 min ([2]; spleen): 1.13 SUV | Uptake, Mean 60 min ([2]; spleen): 0.87 SUV | Uptake, Mean 2 min ([2]; striatum): 3.21 SUV | Uptake, Mean 10 min ([2]; striatum): 3.56 SUV | Uptake, Mean 30 min ([2]; striatum): 3.03 SUV | Uptake, Mean 60 min ([2]; striatum): 1.14 SUV | Uptake, Mean 2 min ([2]; whole cerebrum): 3.11 SUV | Uptake, Mean 10 min ([2]; whole cerebrum): 3.43 SUV | Uptake, Mean 30 min ([2]; whole cerebrum): 2.31 SUV | Uptake, Mean 60 min ([2]; whole cerebrum): 0.87 SUV | blood uptake ([2]; with a slow washout): low | time of peak uptake after tracer injection (mGluR2/3 [3]; frontal cortex, baseline scan): around 15 min | mGluR2/3 specificity of brain uptake (mGluR2/3 [3]; pons uptake in same range as other regions after compound A pretreatment): good mGluR2/3 specificity
